Measurements reported in US20260355196A1, “INHIBITORS AND DEGRADERS OF PIP4K PROTEIN” (Larkspur Biosciences, Inc., priority 2023, published 2026).
pIC50: −log10 of the molar value.

These compounds were tested against T1, PIP4K2C (Homo sapiens, UniProt Q8TBX8) (assay: HiBiT PIP4K2C degradation assay in MOLT-4 cells (endogenous PIP4K2C C-terminally tagged with HiBiT)). Conditions: 6 hours of incubation time, rather than 24 hours; MOLT-4, top concentration 10 micromolar; read-out: HiBIT-degradation MOLT4 PIP4k2C DC50 (6 hours, marked *).
T1 sequence (Q8TBX8 1-421): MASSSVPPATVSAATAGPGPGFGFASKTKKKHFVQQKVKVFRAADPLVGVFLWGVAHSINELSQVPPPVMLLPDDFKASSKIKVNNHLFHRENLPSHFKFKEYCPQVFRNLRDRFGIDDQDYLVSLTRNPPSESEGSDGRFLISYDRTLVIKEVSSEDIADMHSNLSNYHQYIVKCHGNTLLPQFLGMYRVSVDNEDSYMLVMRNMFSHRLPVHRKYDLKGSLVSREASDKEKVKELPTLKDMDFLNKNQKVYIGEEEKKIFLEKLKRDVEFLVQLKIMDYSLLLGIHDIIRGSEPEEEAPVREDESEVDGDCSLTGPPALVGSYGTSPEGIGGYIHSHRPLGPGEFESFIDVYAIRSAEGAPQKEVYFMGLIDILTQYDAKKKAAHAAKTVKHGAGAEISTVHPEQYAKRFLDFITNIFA
Format: cell-based
Parameters: untagged in primary human PBMCs and monocyte-derived dendritic cells
Procedure, shortened: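 MOLT-4 knock-in line, HiBiT on PIP4K2C C-terminus; 22,500 cells/well; 10-pt 3-fold titration from 10 micromolar, n=2; 24 h or 6 h, 37 C, 5% CO2; Nano-Glo HiBiT lytic luminescence; DC50 via Hill equation.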

DC50 [nM] | Compound
< 500 | O=C1CCC(Nc2ccc(C3CCN(CC4(O)CCN(C(=O)[C@H]5CC[C@H](Nc6ncc(F)c(-c7cccc(-c8ccccc8)c7)n6)CC5)CC4)CC3)c(F)c2)C(=O)N1 (stereo partly drawn) [Compound 464, 3-((4-(1-((1-(trans-4-((4-([1,1′-biphenyl]-3-yl)-5-fluoropyrimidin-2-yl)amino)cyclohexane-1-carbonyl)-4-hydroxypiperidin-4-yl)methyl)piperidin-4-yl)-3-fluorophenyl)amino)piperidine-2,6-dione]
< 500 | O=C1CC[C@H](Nc2ccc(N3CCN([C@H]4CC[C@H](C(=O)N[C@H]5CC[C@H](Nc6ncc(F)c(-c7cccc(-c8ccc[nH]c8=O)c7)n6)CC5)CC4)CC3)c(F)c2)C(=O)N1 [Compound 517, trans-4-(4-(4-(((S)-2,6-dioxopiperidin-3-yl)amino)-2-fluorophenyl)piperazin-1-yl)-N-((trans)-4-((5-fluoro-4-(3-(2-oxo-1,2-dihydropyridin-3-yl)phenyl)pyrimidin-2-yl)amino)cyclohexyl)cyclohexane-1-carboxamide]
< 500 | O=C1CCC(Nc2ccc(C3CCN([C@H]4CC[C@H](NC(=O)[C@H]5CC[C@H](Nc6ncc(F)c(-c7cccc(N8CCOCC8=O)c7)n6)CC5)CC4)CC3)c(F)c2)C(=O)N1 (stereo partly drawn) [Compound 547, trans-N-(trans-4-(4-(4-((2,6-dioxopiperidin-3-yl)amino)-2-fluorophenyl)piperidin-1-yl)cyclohexyl)-4-((5-fluoro-4-(3-(3-oxomorpholino)phenyl)pyrimidin-2-yl)amino)cyclohexane-1-carboxamide]
< 500 | Cc1ccn(-c2cccc(-c3nc(N[C@H]4CC[C@H](C(=O)N5CCC(O)(CN6CCN(c7ccc(NC8CCC(=O)NC8=O)cc7F)CC6)CC5)CC4)ncc3F)c2)c(=O)c1 (stereo partly drawn) [Compound 470, trans-3-((3-fluoro-4-(4-((1-(4-((5-fluoro-4-(3-(4-methyl-2-oxopyridin-1 (2H)-yl)phenyl)pyrimidin-2-yl)amino)cyclohexane-1-carbonyl)-4-hydroxypiperidin-4-yl)methyl)piperazin-1-yl)phenyl)amino)piperidine-2,6-dione]
< 500 | O=C1CCC(Nc2ccc(C3CCN(C4CC5(CC(OC(=O)N6CCC(Nc7ncc(F)c(-c8cccc(-n9ccccc9=O)c8)n7)CC6)C5)C4)CC3)c(F)c2)C(=O)N1 (stereo not drawn) [Compound 633, 6-(4-(4-((2,6-dioxopiperidin-3-yl)amino)-2-fluorophenyl)piperidin-1-yl)spiro[3.3]heptan-2-yl 4-((5-fluoro-4-(3-(2-oxopyridin-1 (2H)-yl)phenyl)pyrimidin-2-yl)amino)piperidine-1-carboxylate]
< 500 | O=C1CCC(Nc2ccc(N3CCC(O)(CN4CCN(C(=O)[C@H]5CC[C@H](Nc6ncc(F)c(-c7cccc(-n8ccccc8=O)c7)n6)CC5)CC4)CC3)c(F)c2)C(=O)N1 (stereo partly drawn) [Compound 410, trans-3-((3-fluoro-4-(4-((4-(4-((5-fluoro-4-(3-(2-oxopyridin-1(2H)-yl)phenyl)pyrimidin-2-yl)amino)cyclohexane-1-carbonyl)piperazin-1-yl)methyl)-4-hydroxypiperidin-1-yl)phenyl)amino)piperidine-2,6-dione]

Same assay, conditions: 24 hours incubation, MOLT-4, top concentration 10 micromolar; read-out: HiBIT-degradation MOLT4 PIP4k2C 24 hours DC50

DC50 [nM] | Compound
< 500 | O=C1CCC(n2c(=O)oc3cc(C4CCN(CC5CCN(CC(=O)N6CCC(Nc7ncc(F)c(-c8cccc(-c9ccc[nH]c9=O)c8)n7)CC6)CC5)CC4)ccc32)C(=O)N1 (stereo not drawn) [Compound 379, 3-[6-[1-[[1-[2-[4-[[5-fluoro-4-[3-(2-oxo-1H-pyridin-3-yl)phenyl]pyrimidin-2-yl]amino]-1-piperidyl]-2-oxo-ethyl]-4-piperidyl]methyl]-4-piperidyl]-2-oxo-1,3-benzoxazol-3-yl]piperidine-2,6-dione]
< 500 | O=C1CCC(n2c(=O)oc3cc(C4CCN(CCC5CCN(C(=O)[C@H]6C[C@@H](Nc7ncc(F)c(-c8cccc(-n9ccccc9=O)c8)n7)C6)CC5)CC4)ccc32)C(=O)N1 (stereo partly drawn) [Compound 325, cis-3-(6-(1-(2-(1-(3-((5-fluoro-4-(3-(2-oxopyridin-1(2H)-yl)phenyl)pyrimidin-2-yl)amino)cyclobutane-1-carbonyl)piperidin-4-yl)ethyl)piperidin-4-yl)-2-oxobenzo[d]oxazol-3 (2H)-yl)piperidine-2,6-dione]

Same assay, conditions: read-out: HiBIT-degradation MOLT4 PIP4k2C DC50 (6 hours, marked *); 6 hours of incubation time, rather than 24 hours; MOLT-4, top concentration 10 micromolar

DC50 [nM] | Compound
< 500 | O=C1CCC(Nc2ccc(N3CCN(C[C@H]4CC[C@H](CNC(=O)[C@H]5CC[C@H](Nc6ncc(F)c(-c7cccc(N8CCOCC8=O)c7)n6)CC5)CC4)CC3)c(F)c2)C(=O)N1 (stereo partly drawn) [Compound 586, trans-(1r,4R)—N-(((1r,4R)-4-((4-(4-((2,6-dioxopiperidin-3-yl)amino)-2-fluorophenyl)piperazin-1-yl)methyl)cyclohexyl)methyl)-4-((5-fluoro-4-(3-(3-oxomorpholino)phenyl)pyrimidin-2-yl)amino)cyclohexane-1-carboxamide]

What follows are compounds tested against T1, PIP4K2C (assay: Enzyme Binding Assay (KINOMEscan): active site-directed competition binding to an immobilized ligand). Conditions: 11-point dose response, duplicate, top concentration 5 micromolar; read-out: Pip4k2c Kd: IC50.
Parameters: purchased Eurofins DiscoverX, San Diego, CA 87-0007-1094
Description: Example B-1: Enzyme Binding Assays (KINOMEscan)
PIP4K2C binding constants disclosed herein were determined using the proprietary Human PIP4K2C binding assay (Catalog number 87-0007-1094, Eurofins DiscoverX, San Diego, CA). This assay measures active site-directed competition binding to an immobilized ligand (see https://doi.org/10.1038/nbt1068, herein incorporated by reference in its entirety). Experiments were conducted using an 11-point dose response curve, in duplicate, with a top starting concentration of 5 micromolar; the Levenberg-Marquardt algorithm was used to fit a Hill equation to dose-response data to calculate IC50 values (see Table 5).

pIC50 | Compound
> 6.30 | CNC(=O)[C@H]1C[C@@H](Nc2ncc(Cl)c(-c3cc(C4CC4)[nH]n3)n2)C1 [Compound 161, cis-3-((5-chloro-4-(5-cyclopropyl-1H-pyrazol-3-yl)pyrimidin-2-yl)amino)-N-methylcyclobutane-1-carboxamide]
5.30 to 6.00 | CC(=O)N[C@H]1CC[C@H](Nc2ncc(Cl)c(C3CCN(C(=O)c4ccc(F)cc4)C3)n2)CC1 (stereo partly drawn) [Compound 126, trans-N-(4-((5-chloro-4-(1-(4-fluorobenzoyl)pyrrolidin-3-yl)pyrimidin-2-yl)amino)cyclohexyl)acetamide]
> 6.30 | CC(=O)N1CCC(Nc2ncc(F)c(-c3ccnc(C4(O)CCC4)c3)n2)CC1 [Compound 232, 1-(4-((5-fluoro-4-(2-(1-hydroxycyclobutyl)pyridin-4-yl)pyrimidin-2-yl)amino)piperidin-1-yl)ethan-1-one]
> 6.30 | CNC(=O)[C@H]1CC[C@H](Nc2ncc(Cl)c(-c3cnn(-c4ccc(F)cc4)c3)n2)CC1 [Compound 134, trans-(1r,4r)-4-((5-chloro-4-(1-(4-fluorophenyl)-1H-pyrazol-4-yl)pyrimidin-2-yl)amino)-N-methylcyclohexane-1-carboxamide]
> 6.30 | O=C(CCC1CCNCC1)N1CCC(Nc2ncc(Cl)c(-c3cccc(-c4ccccc4)c3)n2)CC1 [Compound 7, 1-(4-((4-([1,1′-biphenyl]-3-yl)-5-chloropyrimidin-2-yl)amino)piperidin-1-yl)-3-(piperidin-4-yl)propan-1-one]
> 6.30 | NC(=O)[C@@H]1CCC[C@H](Nc2ncc(F)c(-c3cccc(N4CCCC4)c3)n2)C1 (relative stereo) [Compound 36, cis-3-((5-fluoro-4-(3-(pyrrolidin-1-yl)phenyl)pyrimidin-2-yl)amino)cyclohexane-1-carboxamide]
5.30 to 6.00 | NC(=O)[C@@H]1CCC[C@H](Nc2ncc(F)c(-c3ccn(C4CCCCC4)n3)n2)C1 (relative stereo) [Compound 113, cis-3-((4-(1-cyclohexyl-1H-pyrazol-3-yl)-5-fluoropyrimidin-2-yl)amino)cyclohexane-1-carboxamide]
> 6.30 | CC(=O)N[C@H]1CC[C@H](Nc2ncc(F)c(-c3cccc(-c4ccc[nH]c4=O)c3)n2)CC1 [Compound 255, N-(trans-4-((5-fluoro-4-(3-(2-oxo-1,2-dihydropyridin-3-yl)phenyl)pyrimidin-2-yl)amino)cyclohexyl)acetamide]
> 6.30 | O=C1CC(Nc2ncc(Cl)c(-c3cccc(-c4ccccc4)c3)n2)CCN1 (stereo not drawn) [Compound 15, 4-((4-([1,1′-biphenyl]-3-yl)-5-chloropyrimidin-2-yl)amino)piperidin-2-one]
